Experimental data from patent US9409901B2, “Compositions and methods for treating or preventing diseases or disorders associated with misregulated EIF4E” (Bantam Pharmaceutical, LLC, priority 2012, dated 2016).
Read-outs that look alike come from different tables or passages of the source.

Legend:
[1] = test system: AU565 (breast cancer ER−/PR−, her2−nue+); test: Cell proliferation assay, AU565; type: cell-based
Procedure: Cells: AU565 (breast cancer ER^−/PR^−, her2^−nue^+) • 1. Cells were resuspended in media containing 10% FBS and 2× gentamicin. Resuspended cells were transferred to an assay plate (100 μL aliquots; 5,200 cells/well). • 2. test compound(s) were serially diluted in assay media. Aliquots of 100 μLof the test compound solution was added to the resuspended cells, creating a total volume of 200 μL. • 3. Plates were incubated at 37 C for 91 hours. • 4. 20 μL of Promega Substrate CellTiter 96 Aqueous One Solution Reagent was added to each well. • 5. Plates were incubated at 37 C and read at 490 nm.

[2] = test system: HeLa Cells; test: HeLa Cells FQ IC50; type: cell-based
Procedure: Exposed tryptophan side chains are measured in a spectrometer. Tryptophan, when excited at 280 nm, emits light at 350 nm. The degree to which tryptophan emissions are quenched is a measure of binding of a test compound to eIF4E, as tryptophan side chains become “buried” upon compound binding.
HeLa cells were transfected with a bicistronic dual luciferase construct (2×EMCV Luc Plasmid-firefly and EMCV IRES dependent Renilla luciferase). One reporter construct was CAP-dependent, and the other was not. The cells were treated with DMSO in the presence or absence of various compounds described herein for 10 hours (compounds shown are in 50 μM serial dilutions). Cells were evaluated for Luc activity according to the Promega Dual Glo manufacturer instructions.

[3] = Compound solubility in DMSO; type: physicochemical
[4] = test system: AU565; test: SBH cell AU565; type: cell-based; details: AU565 cells
[5] = target: eIF4E/eIF4G interaction (Homo sapiens, UniProt P06730); test: Fluorescence polarization (FP) assay of eIF4E/eIF4G interaction; type: binding
eIF4E/eIF4G interaction, sequence (P06730 whole entry, species assumed): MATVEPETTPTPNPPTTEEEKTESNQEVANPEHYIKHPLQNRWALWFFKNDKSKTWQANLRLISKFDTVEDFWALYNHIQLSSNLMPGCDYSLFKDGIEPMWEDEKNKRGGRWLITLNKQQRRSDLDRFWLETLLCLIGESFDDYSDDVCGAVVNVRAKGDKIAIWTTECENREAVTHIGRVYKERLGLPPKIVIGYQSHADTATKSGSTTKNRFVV
Procedure: The effect of the bound compound on the activity of eIF4e was further addressed using a Fluorescence Polarization (FP) assay. The FP assay was used to monitor the eIF4E/eIF4G interaction. The eIF4E/eIF4G complex was exposed to Structure 10, and the dissociation of eIF4G from eIF4E was measured using the FP assay.
18 amino acid FITC-labeled 4G peptide (Moerke, N. et al., Cell, 128:257-67, 2007).
Compounds as 12.5 mM solutions in DMSO
A master mixture of 20 nM peptide, 400 μM recombinant […] in NMR buffer was made. 240 μL of this master mix was transferred to a separate tube and 3.2 μL of DMSO was added. 30 μL aliquots of this mixture was then added to each of six wells of 384-well black plate. These are the maximum polarization wells. The minimum polarization wells were determined using peptide only at a concentration of 20 nM. The experimental wells were created by adding 3.2 μL of each 12.5 mM solution of a test compound to the master mixture. The compound mixtures were serially diluted to create a six point dose response curve (with six different concentrations of each test compound).
The triplicate averages of the readings were determined. […] The activity of compound at each concentration was determined by comparing the FP signal in the presence of compound to the control (no compound) value. The percent inhibition is =100−((FP compound/FP control)×100).

[6] = target: eIF4E (Homo sapiens, UniProt P06730); test: Binding to eIF4E demonstrated by NMR; details: FIG. 7
eIF4E, sequence (P06730 whole entry, species assumed): as above

[7] = test system: CRL-2813 human melanoma xenografts; test: CRL-2813 human melanoma xenografts, protein expression (immunostaining); type: in vivo, mice
Procedure: • 1. CRL-2813 cancer cells were grown to obtain ≈5×10^6 cells for each tumor. • 2. Cells were harvested and washed in PBS. • 3. Harvested and washed cells were resuspended in 50% Matrigel™/medium at a density of ≈5×10^6 cells in 100 μL. • 4. 100 μL of the cell suspension was injected subcutaneously • 5. Tumors were grown to ≈150 mm^3 (approx. 2 weeks). • 1. Mice were randomly distributed to treatment and control groups and observed daily. • 2. A test compound or vehicle alone was injected twice daily with at least 10 hrs time interval between doses • Note: Vehicle: corn oil. Drug solution: 35 mg/mL of compound first dissolved in ethanol, mixed with corn oil followed by ethanol evaporation. Dosage: each dose=125 μL vehicle or drug suspension i.p. • 3. Tumor volume was measured weekly. • 4. At the conclusion of experiment, mice were sacrificed, and tumors were removed and weighed. • 5. Remove tumor and weigh • 6. The removed tumors were fixed in formalin solution or flash frozen and processed for histology/immunocytochemistry, or pull-down.
4EGI-1 inhibits expression of oncogenic proteins in melanoma tumors. CRL-2813 human melanoma xenografts were immunostained with antibodies specific for cyclin D1, cyclin E, c-myc, Bcl-2, VEGF or PCNA (FIG. 13). The bar graph is the quantification of immunostaining data (FIG. 14).

[8] = test system: polysomes; test: Polysome profile; type: cell-based; details: sucrose gradient, FIG. 11
Procedure: Cells, plated in 140 mm culture dishes; in mid log phase of growth (4-5 plates per treatment. Test compounds as 40 mM master solutions in DMSO Lysis buffer: 15 mM Tris pH 7.4, 15 mM MgCl2, 150 mM NaCl, 1% TritonX-100, 100 μg/mL cycloheximide, 1 mg/mL Heparin. Polysome buffer: 15 mM Tris pH7.4, 15 mM MgCl2, 150 mM NaCl, 100 μg/mL cycloheximide. • 1. Cells were incubated with the desired concentrations of each compound for 2 hours. • 2. Cells were incubated with 100 μg/mL cycloheximide in media for 5 min at 37 C, after which the media was removed from the late, and the plate was put on ice. • 3. Cells were washed twice with 5 mL PBS+100 μg/mL CHX. • 4. Cells were harvested, resuspended in 375 μl of LSB with 1 mM DTT and 100 U/mL RNAsin. • 5. 125 μL of lysis buffer was added, and the cells were subjected to 10 strokes in a homgenizer. • 6. The lysed cells were spun to remove cellular debris, and the supernatant was transferred to fresh tubes. • 7. 15 μL of 5M NaCl and 50 μL of 10 mg/mL Heparin was added. A 20 μL aliquot was taken and stored. The remainder of the supernatant mixture was taken to a volume of 1 mL and the OD260/280 was read. • 8. Aliquots of the supernatant mixture were then applied to a 15-50% sucrose gradient and spun for 105 minutes. The sucrose gradient was then fractionated and the OD254 was measured. […]

[9] = AU-565, 91 hours, read-out: ED50 (μM), anti-proliferative activity against AU-565
[10] = fluorescence polarization, some cells give words
[11] = AU-565 cells, read-out: AU-565 EC50

## O=C(O)/C(Cc1ccccc1[N+](=O)[O-])=N/Nc1nc(-c2ccc(Cl)c(Cl)c2)cs1 [Structure 4EGI-1E, reference compound]
[1]; [9]
  EC50: 21 to 32 µM
[1]; AU-565, at 40 μM
  % Growth Inhibition/μM: 60/40%
[2]
  IC50: 48.1 µM

## COc1cccc(-c2nc(-n3nc(C(=O)c4nn[nH]n4)c4cc(C(F)(F)F)ccc43)sc2C(C)C)c1 [Structure 13]
[3]
  Compound Solubility DMSO: complete
[4]
  EC50: 9 to 14 µM

## COc1cccc(-c2nc(-n3nc(CC(=O)NCC(=O)O)c4cc(Cl)ccc43)sc2C(C)C)c1 [Structure 15]
[3]
  Compound Solubility DMSO: complete
[4]
  EC50: 28 to 41 µM
[5]; [10]
  FP EC50 (μM): some

## COc1cccc(-c2nc(-n3nc(CC(=O)N(C)CC(=O)O)c4cc(Cl)ccc43)sc2C(C)C)c1 [Structure 16]
[3]
  Compound Solubility DMSO: complete
[4]
  EC50: 5.3 to 8 µM
[5]; [10]
  FP EC50 (μM): good

## O=C(O)/C(Cc1ccccc1[N+](=O)[O-])=N\Nc1nc(-c2ccc(Cl)c(Cl)c2)cs1 [Structure 4EGI-1Z, reference compound]
[1]; [9]
  EC50: 4.8 to 7.1 µM
[1]; AU-565, at 10 μM
  % Growth Inhibition/μM: 30/10%
[2]
  IC50: 26.6 µM

## COc1cccc(-c2nc(-n3cc(C(=O)N4CCNCC4)c4cc(C(F)(F)F)ccc43)sc2C(C)C)c1 [Structure 10]
[6]
  Binding to eIF4E by NMR: demonstrated
[1]; Homo sapiens, AU565, AU-565, 91 hours, read-out: ED50 (μM), anti-proliferative activity against AU-565
  EC50: 1.2 to 1.8 µM
[1]; Homo sapiens, AU565, AU-565, at 3.1 μM, read-out: % Growth Inhibition/μM
  inhibition at 3.1 µM: 85%

## CCc1sc(-n2nc(C(=O)O)c3cc(C(F)(F)F)ccc32)nc1-c1cccc(OC)c1 [Structure 17]
[1]; [11]
  EC50: 8.5 to 12.8 µM

## COC(=O)CN(C)C(=O)c1nn(-c2nc(-c3cccc(OC)c3)c(C(C)C)s2)c2ccc(C(F)(F)F)cc12 [Structure 46]
[3]
  Compound Solubility DMSO: little/no
[4]
  EC50: 18 to 28 µM

## CCOC(=O)CNC(=O)c1nn(-c2nc(-c3cccc(OC)c3)c(C(C)C)s2)c2ccc(C(F)(F)F)cc12 [Structure 47]
[3]
  Compound Solubility DMSO: complete
[4]
  SBH cell AU565 (μM): none

## COc1cccc(-c2nc(-n3nc(CC(=O)O)c4cc(Cl)ccc43)sc2C(C)C)c1 [Structure 14]
[3]
  Compound Solubility DMSO: complete
[4]
  EC50: 21 to 31 µM

## O=C(O)/C(Cc1ccccc1[N+](=O)[O-])=N/Nc1nc(-c2ccc(Cl)c(Cl)c2)cs1 [Structure 4EGI-1, 4EGI-1]
[7]; cyclin D1, cyclin E, c-myc, Bcl-2, VEGF or PCNA immunostaining
  expression of oncogenic proteins in melanoma tumors: inhibits
[7]; xenograft model, FIG. 14
  housekeeping proteins (e.g., actin and tubulin): unaffected
  translation of mRNA for growth-promoting and oncogenic proteins: down-regulates
[8]
  polysome density: noticeable difference

## COc1cccc(-c2nc(-n3nc(C(=O)O)c4cc(C#N)ccc43)sc2C(C)C)c1 [Structure 3]
[1]; [11]
  EC50: 16 to 25 µM
[5]
  activity in fluorescence polarization assays: showed activity

## COc1cccc(-c2nc(-n3nc(C(=O)O)c4cc(C(F)(F)F)ccc43)sc2C(C)C)c1 [Structure 2]
[1]; [9]
  EC50: 5.6 to 8.4 µM
[1]; AU-565, at 40 μM
  % Growth Inhibition/μM: 79/40%
[1]; [11]
  EC50: 9.1 µM

## CCc1sc(-n2nc(C(=O)O)c3cc(C(F)(F)F)ccc32)nc1-c1cccc(OC)c1 [Structure 1]
[1]; [9]
  EC50: 8.5 to 12.8 µM
[1]; AU-565, at 40 μM
  % Growth Inhibition/μM: 70/40%

## COc1ccc(C[C@H](N)C(=O)N[C@H]2[C@@H](O)[C@H](n3cnc4c(N(C)C)ncnc43)O[C@@H]2CO)cc1 [puromycin]
[8]
  polysome density: noticeable difference

## COC(=O)CNC(=O)c1nn(-c2nc(-c3cccc(OC)c3)c(C(C)C)s2)c2ccc(C(F)(F)F)cc12 [Structure 45]
[3]
  Compound Solubility DMSO: half/less
[4]
  SBH cell AU565 (μM): low

## COc1cccc(-c2nc(Cn3nc(C(=O)O)c4cc(C(F)(F)F)ccc43)sc2C(C)C)c1 [Structure 9]
[5]; [10]
  EC50: 24 to 36 µM

## CCOC(=O)CN(C)C(=O)c1nn(-c2nc(-c3cccc(OC)c3)c(C(C)C)s2)c2ccc(C(F)(F)F)cc12 [Structure 48]
[3]
  Compound Solubility DMSO: half/less
[4]
  EC50: 12 to 18 µM
